Measurements published in publication PMC6130310 (Frontiers in Molecular Neuroscience, 2018).

Assays:
Assay in all cases: two-electrode voltage clamp, Xenopus oocytes
[1] = system: T1, zGlyRα1/ßb; format: cell-based, Danio rerio; conditions: -50 mV, pH 7.5, heteromers alpha:beta cRNA 1:1
T1 construct: gene glra1; full-length cDNAs in pCS2+, cRNAs co-injected 1:1 in Xenopus laevis oocytes; heteropentamer
Text: two-electrode voltage clamp, Xenopus oocytes on zGlyRα1/ßb

[2] = target: T2, zGlyRα2 homomer (Danio rerio, UniProt F1R8P4); format: cell-based
T2 construct: gene glra2; full-length cDNA in pCS2+, Kozak added; cRNA in Xenopus laevis oocytes; homopentamer; not the earlier 'zGlyRα2' (now α4a)
T2 sequence (F1R8P4 28-449): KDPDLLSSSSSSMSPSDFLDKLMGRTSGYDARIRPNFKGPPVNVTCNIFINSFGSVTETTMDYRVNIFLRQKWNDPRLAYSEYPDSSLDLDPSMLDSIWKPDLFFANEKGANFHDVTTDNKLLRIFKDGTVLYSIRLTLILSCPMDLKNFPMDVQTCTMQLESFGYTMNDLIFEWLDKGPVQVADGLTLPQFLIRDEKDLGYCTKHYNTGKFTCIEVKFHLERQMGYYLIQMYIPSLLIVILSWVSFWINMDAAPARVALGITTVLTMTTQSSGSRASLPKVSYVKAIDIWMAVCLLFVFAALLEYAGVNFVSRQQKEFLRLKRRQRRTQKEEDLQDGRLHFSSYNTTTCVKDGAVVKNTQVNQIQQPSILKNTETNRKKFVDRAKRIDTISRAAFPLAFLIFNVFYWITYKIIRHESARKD
Text: two-electrode voltage clamp, Xenopus oocytes on zGlyRα2 homomer

[3] = target: T3, zGlyRα4a/ßa (Danio rerio, UniProt A0ACM8PZL4+F1RDZ6); format: cell-based
T3 construct: gene glra4a; full-length cDNAs in pCS2+, cRNAs co-injected 1:1 in Xenopus laevis oocytes; heteropentamer
T3 sequence (A0ACM8PZL4 23-498, one chain of several): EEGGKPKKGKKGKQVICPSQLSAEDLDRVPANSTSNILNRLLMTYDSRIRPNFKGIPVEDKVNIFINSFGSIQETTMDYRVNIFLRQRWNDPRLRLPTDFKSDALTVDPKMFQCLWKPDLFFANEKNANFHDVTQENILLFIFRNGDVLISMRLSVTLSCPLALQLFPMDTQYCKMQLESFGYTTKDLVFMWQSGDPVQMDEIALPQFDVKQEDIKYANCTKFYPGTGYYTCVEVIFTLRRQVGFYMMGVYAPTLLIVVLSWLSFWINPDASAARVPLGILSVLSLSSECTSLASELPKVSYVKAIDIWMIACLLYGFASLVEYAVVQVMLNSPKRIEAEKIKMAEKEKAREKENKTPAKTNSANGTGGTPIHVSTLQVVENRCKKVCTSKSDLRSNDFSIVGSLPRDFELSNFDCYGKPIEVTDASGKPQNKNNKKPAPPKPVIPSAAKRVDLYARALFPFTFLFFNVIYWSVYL
Text: two-electrode voltage clamp, Xenopus oocytes on zGlyRα4a/ßa

[4] = target: T4, zGlyRα2/ßb (Danio rerio, UniProt F1R8P4+Q6DC22); format: cell-based
T4 construct: gene glra2; full-length cDNAs in pCS2+, cRNAs co-injected 1:1 in Xenopus laevis oocytes; heteropentamer
T4 sequence (F1R8P4 28-449): T2 sequence (F1R8P4 28-449)
T4 sequence (Q6DC22 23-494): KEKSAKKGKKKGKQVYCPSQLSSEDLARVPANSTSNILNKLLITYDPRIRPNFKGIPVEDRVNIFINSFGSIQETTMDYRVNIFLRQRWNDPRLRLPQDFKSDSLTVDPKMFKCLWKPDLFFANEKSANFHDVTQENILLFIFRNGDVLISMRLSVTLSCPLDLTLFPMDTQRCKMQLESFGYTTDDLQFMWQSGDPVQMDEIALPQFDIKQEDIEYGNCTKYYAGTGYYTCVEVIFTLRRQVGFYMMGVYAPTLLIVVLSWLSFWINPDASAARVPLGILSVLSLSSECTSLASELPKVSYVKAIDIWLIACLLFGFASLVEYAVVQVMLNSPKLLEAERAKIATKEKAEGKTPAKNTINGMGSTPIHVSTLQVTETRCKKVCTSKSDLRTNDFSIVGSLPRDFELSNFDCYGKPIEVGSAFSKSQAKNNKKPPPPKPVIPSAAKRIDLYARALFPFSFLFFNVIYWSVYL
Text: two-electrode voltage clamp, Xenopus oocytes on zGlyRα2/ßb

[5] = target: T5, zGlyRα4b/ßb (Danio rerio, UniProt A0A8M1P2L1+Q6DC22); format: cell-based
T5 construct: gene glra4b; full-length cDNAs in pCS2+, cRNAs co-injected 1:1 in Xenopus laevis oocytes; heteropentamer
T5 sequence (A0A8M1P2L1 25-492): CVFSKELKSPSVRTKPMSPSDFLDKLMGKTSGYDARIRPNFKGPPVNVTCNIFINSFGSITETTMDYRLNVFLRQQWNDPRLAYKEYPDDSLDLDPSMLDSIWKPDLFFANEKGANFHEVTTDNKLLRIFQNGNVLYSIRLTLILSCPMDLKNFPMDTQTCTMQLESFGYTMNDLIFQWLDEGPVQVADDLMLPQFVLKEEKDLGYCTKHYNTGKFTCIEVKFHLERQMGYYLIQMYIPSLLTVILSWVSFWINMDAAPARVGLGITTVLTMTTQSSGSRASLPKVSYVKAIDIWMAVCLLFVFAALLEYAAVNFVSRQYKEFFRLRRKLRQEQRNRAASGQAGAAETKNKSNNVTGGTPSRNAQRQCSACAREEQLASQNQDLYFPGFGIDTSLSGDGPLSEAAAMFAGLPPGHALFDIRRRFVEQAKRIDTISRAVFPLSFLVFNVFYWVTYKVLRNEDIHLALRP
T5 sequence (Q6DC22 23-494): T4 sequence (Q6DC22 23-494)
Text: two-electrode voltage clamp, Xenopus oocytes on zGlyRα4b/ßb

[6] = target: T6, zGlyRα3 homomer (Danio rerio, UniProt A0A8M1PA31); format: cell-based
T6 construct: gene glra3; full-length cDNA in pCS2+, Kozak added; cRNA in Xenopus laevis oocytes; homopentamer
T6 sequence (A0A8M1PA31 28-450): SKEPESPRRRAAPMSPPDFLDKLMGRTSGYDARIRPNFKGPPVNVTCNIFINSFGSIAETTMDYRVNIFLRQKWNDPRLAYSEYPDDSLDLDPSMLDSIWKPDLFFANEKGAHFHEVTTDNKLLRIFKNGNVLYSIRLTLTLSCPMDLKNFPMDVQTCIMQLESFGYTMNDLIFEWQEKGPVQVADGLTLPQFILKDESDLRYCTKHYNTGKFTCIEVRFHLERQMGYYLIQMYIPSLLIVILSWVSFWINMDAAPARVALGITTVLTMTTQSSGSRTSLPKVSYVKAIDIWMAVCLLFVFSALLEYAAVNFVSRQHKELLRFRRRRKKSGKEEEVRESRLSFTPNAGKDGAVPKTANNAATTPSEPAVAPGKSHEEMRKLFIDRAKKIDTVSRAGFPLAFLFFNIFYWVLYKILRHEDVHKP
Text: two-electrode voltage clamp, Xenopus oocytes on zGlyRα3 homomer

[7] = target: T7, zGlyRα3/ßa (Danio rerio, UniProt A0A8M1PA31+A0ACM8PZL4); format: cell-based
T7 construct: gene glra3; full-length cDNAs in pCS2+, cRNAs co-injected 1:1 in Xenopus laevis oocytes; heteropentamer
T7 sequence (A0ACM8PZL4 23-498, one chain of several): as the sequence (A0ACM8PZL4 23-498, one chain of several) above
Text: two-electrode voltage clamp, Xenopus oocytes on zGlyRα3/ßa

[8] = system: T8, zGlyRα1/ßa; format: cell-based, Danio rerio; conditions: -50 mV, pH 7.5, heteromers alpha:beta cRNA 1:1
T8 construct: gene glra1; full-length cDNAs in pCS2+, cRNAs co-injected 1:1 in Xenopus laevis oocytes; heteropentamer
Text: two-electrode voltage clamp, Xenopus oocytes on zGlyRα1/ßa

[9] = target: T9, zGlyRα4b/ßa (Danio rerio, UniProt A0A8M1P2L1+A0ACM8PZL4); format: cell-based
T9 construct: gene glra4b; full-length cDNAs in pCS2+, cRNAs co-injected 1:1 in Xenopus laevis oocytes; heteropentamer
T9 sequence (A0ACM8PZL4 23-498, one chain of several): as the sequence (A0ACM8PZL4 23-498, one chain of several) above
Text: two-electrode voltage clamp, Xenopus oocytes on zGlyRα4b/ßa

[10] = target: T10, zGlyRα1 homomer (Danio rerio, UniProt O93430); format: cell-based
T10 construct: gene glra1; full-length cDNA in pCS2+, Kozak added; cRNA in Xenopus laevis oocytes; homopentamer
T10 sequence (O93430 25-444): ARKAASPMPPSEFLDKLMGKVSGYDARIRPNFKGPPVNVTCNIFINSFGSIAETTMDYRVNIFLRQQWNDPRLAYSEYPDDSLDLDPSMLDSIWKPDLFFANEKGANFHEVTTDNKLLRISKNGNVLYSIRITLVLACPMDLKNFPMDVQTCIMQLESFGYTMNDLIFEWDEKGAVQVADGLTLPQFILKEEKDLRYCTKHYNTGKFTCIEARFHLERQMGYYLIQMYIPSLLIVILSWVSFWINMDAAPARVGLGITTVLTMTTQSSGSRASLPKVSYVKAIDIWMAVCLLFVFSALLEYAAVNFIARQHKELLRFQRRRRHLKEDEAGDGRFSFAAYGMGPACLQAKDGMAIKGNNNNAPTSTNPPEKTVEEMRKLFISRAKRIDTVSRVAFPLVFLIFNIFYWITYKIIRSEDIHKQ
Text: two-electrode voltage clamp, Xenopus oocytes on zGlyRα1 homomer

[11] = target: T11, zGlyRα4b homomer (Danio rerio, UniProt A0A8M1P2L1); format: cell-based
T11 construct: gene glra4b; full-length cDNA in pCS2+, Kozak added; cRNA in Xenopus laevis oocytes; homopentamer
T11 sequence (A0A8M1P2L1 25-492): T5 sequence (A0A8M1P2L1 25-492)
Text: two-electrode voltage clamp, Xenopus oocytes on zGlyRα4b homomer

[12] = target: T12, zGlyRα4a/ßb (Danio rerio, UniProt F1RDZ6+Q6DC22); format: cell-based
T12 construct: gene glra4a; full-length cDNAs in pCS2+, cRNAs co-injected 1:1 in Xenopus laevis oocytes; heteropentamer
T12 sequence (F1RDZ6 28-457): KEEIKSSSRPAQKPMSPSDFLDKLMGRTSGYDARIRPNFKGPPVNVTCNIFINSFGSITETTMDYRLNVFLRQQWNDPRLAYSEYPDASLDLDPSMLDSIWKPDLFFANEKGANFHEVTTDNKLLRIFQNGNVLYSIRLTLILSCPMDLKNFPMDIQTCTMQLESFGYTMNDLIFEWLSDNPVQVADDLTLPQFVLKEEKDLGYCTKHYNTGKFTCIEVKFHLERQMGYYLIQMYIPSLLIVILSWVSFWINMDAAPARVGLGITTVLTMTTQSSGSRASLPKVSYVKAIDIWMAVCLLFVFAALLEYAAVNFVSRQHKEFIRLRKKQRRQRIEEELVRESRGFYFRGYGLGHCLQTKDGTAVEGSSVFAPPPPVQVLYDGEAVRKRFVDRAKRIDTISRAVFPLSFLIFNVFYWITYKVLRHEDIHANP
T12 sequence (Q6DC22 23-494): T4 sequence (Q6DC22 23-494)
Text: two-electrode voltage clamp, Xenopus oocytes on zGlyRα4a/ßb

[13] = target: T13, zGlyRα2/ßa (Danio rerio, UniProt A0ACM8PZL4+F1R8P4); format: cell-based
T13 construct: gene glra2; full-length cDNAs in pCS2+, cRNAs co-injected 1:1 in Xenopus laevis oocytes; heteropentamer
T13 sequence (A0ACM8PZL4 23-498, one chain of several): as the sequence (A0ACM8PZL4 23-498, one chain of several) above
Text: two-electrode voltage clamp, Xenopus oocytes on zGlyRα2/ßa

[14] = target: T14, zGlyRα3/ßb (Danio rerio, UniProt A0A8M1PA31+Q6DC22); format: cell-based
T14 construct: gene glra3; full-length cDNAs in pCS2+, cRNAs co-injected 1:1 in Xenopus laevis oocytes; heteropentamer
T14 sequence (A0A8M1PA31 28-450): T6 sequence (A0A8M1PA31 28-450)
T14 sequence (Q6DC22 23-494): T4 sequence (Q6DC22 23-494)
Text: two-electrode voltage clamp, Xenopus oocytes on zGlyRα3/ßb

[15] = target: T15, zGlyRα4a homomer (Danio rerio, UniProt F1RDZ6); format: cell-based
T15 construct: gene glra4a; full-length cDNA in pCS2+, Kozak added; cRNA in Xenopus laevis oocytes; homopentamer
T15 sequence (F1RDZ6 28-457): T12 sequence (F1RDZ6 28-457)
Text: two-electrode voltage clamp, Xenopus oocytes on zGlyRα4a homomer

[16] = read-out: Glycine / EC50, agonist
[17] = read-out: Strychnine / IC50, competitive antagonist, block of current evoked by 200 μM glycine

Q: How did the EC50 [1, 16] turn out when `NCC(=O)O` [glycine] was run?
A: 194 ± 18 µM

Q: And the EC50 [2]?
A: 138 ± 10 µM

Q: What about the EC50 [3] of the same compound?
A: 458 ± 82 µM

Q: And the EC50 [4]?
A: 343 ± 64 µM

Q: What about the EC50 [5] of the same compound?
A: 221 ± 15 µM

Q: What about the EC50 [6] of the same compound?
A: 125 ± 7.9 µM

Q: What about the EC50 [7] of the same compound?
A: 521 ± 52 µM

Q: What about the EC50 [8, 16] of the same compound?
A: 186 ± 10 µM

Q: What about the EC50 [9] of the same compound?
A: 236 ± 17 µM

Q: What about the EC50 [10] of the same compound?
A: 102 ± 5.8 µM

Q: What about the EC50 [11] of the same compound?
A: 134 ± 15 µM

Q: What about the EC50 [12] of the same compound?
A: 404 ± 24 µM

Q: What about the EC50 [13] of the same compound?
A: 307 ± 30 µM

Q: And the EC50 [14]?
A: 260 ± 20 µM

Q: What about the EC50 [15] of the same compound?
A: 200 ± 16 µM

Q: Which results are given for `O=C1C[C@@H]2OCC=C3CN4CC[C@]56c7ccccc7N1[C@H]5[C@H]2[C@H]3C[C@H]46` [strychnine]?
A: IC50 [1, 17]: 0.074 ± 0.017 µM; IC50 [2]: 0.212 ± 0.037 µM; IC50 [3]: 0.043 ± 0.022 µM; IC50 [4]: 0.121 ± 0.016 µM; IC50 [5]: 0.021 ± 0.0031 µM; IC50 [6]: 0.021 ± 0.008 µM; IC50 [7]: 0.083 ± 0.016 µM; IC50 [8, 17]: 0.012 ± 0.004 µM; IC50 [9]: 0.081 ± 0.016 µM; IC50 [11]: 0.052 ± 0.011 µM; IC50 [12]: 0.018 ± 0.0026 µM; IC50 [13]: 0.292 ± 0.043 µM; IC50 [14]: 0.041 ± 0.0081 µM; IC50 [15]: 0.055 ± 0.012 µM
